Assay results as given in patent US20100267561A1, “HERBICIDAL PYRIDAZINONE DERIVATIVES” (priority 2007, published 2010).

Key:
Assay type in all cases: in vivo
[1] = system: canarygrass (Phalaris minor); assay: Test B postemergence plant response; conditions: for Plant response rating, Canarygrass: Postemergence
Method in brief: (§1)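 Test compounds were applied postemergence to plants 2 to 18 cm tall (1- to 4-leaf stage). After 13 to 15 days in a greenhouse, each species was visually compared with untreated controls and rated 0 (no effect) to 100 (complete control).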

[2] = system: chickweed (Stellaria media); assay: Test B postemergence plant response; conditions: for Plant response rating, Chickweed: Postemergence
Method in brief: as §1

[3] = system: Italian ryegrass (Lolium multiflorum); assay: Test C pre-/postemergence plant response
Method in brief: (§2)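 Application timings covered preemergence and postemergence (1- to 4-leaf plants, 2 to 18 cm), using a non-phytotoxic solvent mixture that included a surfactant. Controlled-environment holding lasted 15 to 25 days before visual scoring, where 100 denotes complete control and 0 no effect.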

[4] = system: annual bluegrass (Poa annua); assay: Test C pre-/postemergence plant response
Method in brief: as §2

[5] = system: blackgrass (Alopecurus myosuroides); assay: Test C pre-/postemergence plant response
Method in brief: as §2

[6] = system: canarygrass (Phalaris minor); assay: Test C pre-/postemergence plant response; conditions: Preemergence
Method in brief: as §2

[7] = system: downy bromegrass (Bromus tectorum); assay: Test C pre-/postemergence plant response
Method in brief: as §2

[8] = system: green foxtail (Setaria viridis); assay: Test C pre-/postemergence plant response
Method in brief: as §2

[9] = system: pigweed (Amaranthus retroflexus); assay: Test C pre-/postemergence plant response
Method in brief: as §2

[10] = system: spring barley (Hordeum vulgare); assay: Test C pre-/postemergence plant response
Method in brief: as §2

[11] = system: spring wheat (Triticum aestivum); assay: Test C pre-/postemergence plant response
Method in brief: as §2

[12] = system: wild mustard (Sinapis arvensis); assay: Test C pre-/postemergence plant response
Method in brief: as §2

wild oat (Avena fatua) = assay: Test C pre-/postemergence plant response
Method in brief: as §2

[13] = system: windgrass (Apera spica-venti); assay: Test C pre-/postemergence plant response
Method in brief: as §2

[14] = system: winter barley (Hordeum vulgare); assay: Test C pre-/postemergence plant response
Method in brief: as §2

[15] = system: winter wheat (Triticum aestivum); assay: Test C pre-/postemergence plant response
Method in brief: as §2

[16] = 8 g ai/ha, postemergence, 0-100 scale
[17] = 62 g ai/ha, scale 0 to 100, 0 no effect, 100 complete control
[18] = Postemergence, 8 g ai/ha, scale 0 to 100, 0 no effect, 100 complete control
[19] = Postemergence, 16 g ai/ha, scale 0 to 100, 0 no effect, 100 complete control
[20] = Postemergence, 31 g ai/ha, scale 0 to 100, 0 no effect, 100 complete control
[21] = Postemergence, 62 g ai/ha, scale 0 to 100, 0 no effect, 100 complete control
[22] = Preemergence, 8 g ai/ha, scale 0 to 100 (0 no effect, 100 complete control)
[23] = Preemergence, 16 g ai/ha, scale 0 to 100 (0 no effect, 100 complete control)
[24] = Preemergence, 31 g ai/ha, scale 0 to 100 (0 no effect, 100 complete control)
[25] = Preemergence, 62 g ai/ha, scale 0 to 100, 0 no effect, 100 complete control

Cc1cc(-c2ccc(Cl)cc2)nn1-c1c(OC(=O)OCC(C)C)cnn(C)c1=O [Compound 57]
Canarygrass plant response rating [1, 16]: 0 | Plant response rating, Canarygrass ([1]; 16 g ai/ha, scale 0 to 100): 0 | Plant response rating, Canarygrass ([1]; 31 g ai/ha, scale 0 to 100): 0 | Plant response rating, Canarygrass [1, 17]: 60 | Chickweed plant response rating [2, 16]: 0 | Plant response rating, Chickweed ([2]; 16 g ai/ha, scale 0 to 100): 0 | Plant response rating, Chickweed ([2]; 31 g ai/ha, scale 0 to 100): 0 | Plant response rating, Chickweed [2, 17]: 0 | Plant response rating, Ryegrass, Italian [3, 18]: 75 | Plant response rating, Ryegrass, Italian [3, 19]: 98 | Plant response rating, Ryegrass, Italian [3, 20]: 100 | Plant response rating, Ryegrass, Italian [3, 21]: 100 | Plant response rating, Ryegrass, Italian [3, 22]: 65 | Plant response rating, Ryegrass, Italian [3, 23]: 85 | Plant response rating, Ryegrass, Italian [3, 24]: 100 | Plant response rating, Ryegrass, Italian [3, 25]: 100 | Plant response rating, Bluegrass [4, 18]: 0 | Plant response rating, Bluegrass [4, 19]: 10 | Plant response rating, Bluegrass [4, 20]: 30 | Plant response rating, Bluegrass [4, 21]: 35 | Plant response rating, Bluegrass [4, 22]: 0 | Plant response rating, Bluegrass [4, 23]: 30 | Plant response rating, Bluegrass [4, 24]: 50 | Plant response rating, Bluegrass [4, 25]: 65 | Plant response rating, Blackgrass [5, 18]: 35 | Plant response rating, Blackgrass [5, 19]: 75 | Plant response rating, Blackgrass [5, 20]: 98 | Plant response rating, Blackgrass [5, 22]: 75 | Plant response rating, Blackgrass [5, 23]: 85 | Plant response rating, Blackgrass [5, 24]: 95 | Plant response rating, Blackgrass [5, 25]: 95 | Plant response rating, Canarygrass ([6]; 8 g ai/ha, scale 0 to 100 (0 no effect, 100 complete control)): 0 | Plant response rating, Canarygrass ([6]; 16 g ai/ha, scale 0 to 100 (0 no effect, 100 complete control)): 75 | Plant response rating, Canarygrass ([6]; 31 g ai/ha, scale 0 to 100 (0 no effect, 100 complete control)): 80 | Plant response rating, Canarygrass [6, 17]: 90 | Plant response rating, Bromegrass, Downy [7, 18]: 0 | Plant response rating, Bromegrass, Downy [7, 19]: 30 | Plant response rating, Bromegrass, Downy [7, 20]: 30 | Plant response rating, Bromegrass, Downy [7, 21]: 70 | Plant response rating, Bromegrass, Downy [7, 22]: 0 | Plant response rating, Bromegrass, Downy [7, 23]: 20 | Plant response rating, Bromegrass, Downy [7, 24]: 40 | Plant response rating, Bromegrass, Downy [7, 25]: 80 | Plant response rating, Foxtail, Green [8, 18]: 90 | Plant response rating, Foxtail, Green [8, 19]: 100 | Plant response rating, Foxtail, Green [8, 20]: 100 | Plant response rating, Foxtail, Green [8, 21]: 100 | Plant response rating, Foxtail, Green [8, 22]: 40 | Plant response rating, Foxtail, Green [8, 23]: 100 | Plant response rating, Foxtail, Green [8, 24]: 100 | Plant response rating, Foxtail, Green [8, 25]: 100 | Plant response rating, Pigweed [9, 18]: 0 | Plant response rating, Pigweed [9, 19]: 0 | Plant response rating, Pigweed [9, 20]: 0 | Plant response rating, Pigweed [9, 21]: 0 | Plant response rating, Pigweed [9, 22]: 0 | Plant response rating, Pigweed [9, 23]: 0 | Plant response rating, Pigweed [9, 24]: 0 | Plant response rating, Pigweed [9, 25]: 0 | Plant response rating, Barley, Spring [10, 18]: 0 | Plant response rating, Barley, Spring [10, 19]: 20 | Plant response rating, Barley, Spring [10, 20]: 30 | Plant response rating, Barley, Spring [10, 21]: 40 | Plant response rating, Barley, Spring [10, 22]: 0 | Plant response rating, Barley, Spring [10, 23]: 0 | Plant response rating, Barley, Spring [10, 24]: 20 | Plant response rating, Barley, Spring [10, 25]: 40 | Plant response rating, Wheat, Spring [11, 18]: 0 | Plant response rating, Wheat, Spring [11, 19]: 25 | Plant response rating, Wheat, Spring [11, 20]: 75 | Plant response rating, Wheat, Spring [11, 21]: 75 | Plant response rating, Wheat, Spring [11, 22]: 20 | Plant response rating, Wheat, Spring [11, 23]: 20 | Plant response rating, Wheat, Spring [11, 24]: 65 | Plant response rating, Wheat, Spring [11, 25]: 90 | Plant response rating, Mustard, Wild [12, 18]: 0 | Plant response rating, Mustard, Wild [12, 19]: 0 | Plant response rating, Mustard, Wild [12, 20]: 0 | Plant response rating, Mustard, Wild [12, 21]: 0 | Plant response rating, Mustard, Wild [12, 22]: 0 | Plant response rating, Mustard, Wild [12, 23]: 0 | Plant response rating, Mustard, Wild [12, 24]: 0 | Plant response rating, Mustard, Wild [12, 25]: 0 | Plant response rating, Oat, Wild (wild oat (Avena fatua); [18]): 10 | Plant response rating, Oat, Wild (wild oat (Avena fatua); [19]): 90 | Plant response rating, Oat, Wild (wild oat (Avena fatua); [20]): 90 | Plant response rating, Oat, Wild (wild oat (Avena fatua); [21]): 100 | Plant response rating, Oat, Wild (wild oat (Avena fatua); [22]): 0 | Plant response rating, Oat, Wild (wild oat (Avena fatua); [23]): 15 | Plant response rating, Oat, Wild (wild oat (Avena fatua); [24]): 60 | Plant response rating, Oat, Wild (wild oat (Avena fatua); [25]): 80 | Plant response rating, Windgrass [13, 18]: 0 | Plant response rating, Windgrass [13, 19]: 0 | Plant response rating, Windgrass [13, 20]: 0 | Plant response rating, Windgrass [13, 21]: 65 | Plant response rating, Windgrass [13, 22]: 0 | Plant response rating, Windgrass [13, 23]: 0 | Plant response rating, Windgrass [13, 24]: 50 | Plant response rating, Windgrass [13, 25]: 75 | Plant response rating, Barley, Winter [14, 18]: 0 | Plant response rating, Barley, Winter [14, 19]: 15 | Plant response rating, Barley, Winter [14, 20]: 15 | Plant response rating, Barley, Winter [14, 21]: 90 | Plant response rating, Barley, Winter [14, 22]: 0 | Plant response rating, Barley, Winter [14, 23]: 0 | Plant response rating, Barley, Winter [14, 24]: 20 | Plant response rating, Barley, Winter [14, 25]: 60 | Plant response rating, Wheat, Winter [15, 18]: 0 | Plant response rating, Wheat, Winter [15, 19]: 30 | Plant response rating, Wheat, Winter [15, 20]: 30 | Plant response rating, Wheat, Winter [15, 21]: 50 | Plant response rating, Wheat, Winter [15, 22]: 15 | Plant response rating, Wheat, Winter [15, 23]: 15 | Plant response rating, Wheat, Winter [15, 24]: 20 | Plant response rating, Wheat, Winter [15, 25]: 65
